Measurements as given in patent US8846933B2, “N-link hydroxamic acid derivatives useful as antibacterial agents” (Pfizer Inc., priority 2009, dated 2014).

Columns and labels:
[1] = tested on: Escherichia coli EC-1: VOGEL, mouse virulent; assay: MIC determination (CLSI), strain EC-1; format: cell-based; conditions: strain EC-1, unit assumed
Method in brief: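 The mouse-virulent VOGEL isolate of E. coli, EC-1, served as test organism. Minimum inhibitory concentration was measured by CLSI dilution methodology (M7-A7; M100-S18 standards).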

[2] = tested on: Pseudomonas aeruginosa UI-18: Wild-type (PA-7); assay: MIC determination (CLSI), strain PA-7; format: cell-based; conditions: strain PA-7, unit assumed
Method in brief: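 Strain tested was P. aeruginosa UI-18, a wild-type isolate labelled PA-7. Minimum inhibitory concentrations followed CLSI dilution methodology for aerobically growing bacteria (M7-A7, M100-S18).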

[3] = generated in the same manner as in Table 4

For `CC(CCn1ccc(-c2ccc3[nH]cc(CCO)c3c2)cc1=O)(C(=O)NO)S(C)(=O)=O` (stereo not shown) [Example 263, N-hydroxy-4-{4-[3-(2-hydroxyethyl)-1H-indol-5-yl]-2-oxopyridin-1(2H)-yl}-2-methyl-2-(methylsulfonyl)butanamide], the EC-1 (MIC) [1] was 8 µg/mL and the PA-7 (MIC) [2] was over 64 µg/mL.
`CC(CCn1ccc(-c2cc(F)ccc2OC(F)(F)F)cc1=O)(C(=O)NO)S(C)(=O)=O` (stereo not shown) [Example 137, 4-{4-[5-fluoro-2-(trifluoromethoxy)phenyl]-2-oxopyridin-1(2H)-yl}-N-hydroxy-2-methyl-2-(methylsulfonyl)butanamide] gave an EC-1 (MIC) [1, 3] of over 64 µg/mL and a PA-7 (MIC) [2, 3] of over 64 µg/mL.
`CC(CCn1ccc(-c2ccc(OCCO)c(Cl)c2)cc1=O)(C(=O)NO)S(C)(=O)=O` (stereo not shown) [Example 236, 4-{4-[3-chloro-4-(2-hydroxyethoxy)phenyl]-2-oxopyridin-1(2H)-yl}-N-hydroxy-2-methyl-2-(methylsulfonyl)butanamide] gave an EC-1 (MIC) [1] of 32 µg/mL and a PA-7 (MIC) [2] of 16 µg/mL.
With `CC(CCn1ccc(-c2ccc(Cl)c(F)c2)cc1=O)(C(=O)NO)S(C)(=O)=O` (stereo not shown) [Example 142, 4-[4-(4-chloro-3-fluorophenyl)-2-oxopyridin-1(2H)-yl]-N-hydroxy-2-methyl-2-(methylsulfonyl)butanamide] the EC-1 (MIC) [1, 3] was 1 µg/mL and the PA-7 (MIC) [2, 3] was 1 µg/mL.
For `Cc1cc(C#N)ccc1-c1ccn(CC[C@](C)(C(=O)NO)S(C)(=O)=O)c(=O)c1` [Example 472], the EC-1 (MIC) [1] was 32 µg/mL and the PA-7 (MIC) [2] was 8 µg/mL.
Compound `C[C@@](CCn1ccc(-c2ccc3cc(N)ncc3c2)cc1=O)(C(=O)NO)S(C)(=O)=O` [Example 473] has an EC-1 (MIC) [1] of 16 µg/mL and a PA-7 (MIC) [2] of 16 µg/mL.
In the case of `C[C@@](CCn1ccc(-c2ccc(-n3ccnc3)cc2)cc1=O)(C(=O)NO)S(C)(=O)=O` [Example 388, (2R)-N-hydroxy-4-{4-[4-(1H-imidazol-1-yl)phenyl]-2-oxopyridin-1(2H)-yl}-2-methyl-2-(methylsulfonyl)butanamide], the EC-1 (MIC) [1] was 16 µg/mL and the PA-7 (MIC) [2] was 16 µg/mL.
`C[C@@](CCn1ccc(-c2ccc(-c3ncns3)cc2)cc1=O)(C(=O)NO)S(C)(=O)=O` [Example 419, (2R)-N-hydroxy-2-methyl-2-(methylsulfonyl)-4-{2-oxo-4-[4-(1,2,4-thiadiazol-5-yl)phenyl]pyridin-1(2H)-yl}butanamide] showed an EC-1 (MIC) [1] of 0.25 µg/mL and a PA-7 (MIC) [2] of 1 µg/mL.
For `COc1ccc(-c2ccn(CCC(C)(C(=O)NO)S(C)(=O)=O)c(=O)c2)c(C)n1` (stereo not shown) [Example 200, N-hydroxy-4-(6-methoxy-2-methyl-2′-oxo-3,4′-bipyridin-1′(2′H)-yl)-2-methyl-2-(methylsulfonyl)butanamide], the EC-1 (MIC) [1] was 32 µg/mL and the PA-7 (MIC) [2] was 16 µg/mL.
For `CN(C)c1ncc(-c2ccc(-c3ccn(CC[C@](C)(C(=O)NO)S(C)(=O)=O)c(=O)c3)cc2)cn1` [Example 409, (2R)-4-[4-{4-[2-(dimethylamino)pyrimidin-5-yl]phenyl}-2-oxopyridin-1(2H)-yl]-N-hydroxy-2-methyl-2-(methylsulfonyl)butanamide], the EC-1 (MIC) [1] was 0.5 µg/mL and the PA-7 (MIC) [2] was 2 µg/mL.
With `CCCC(CCn1ccc(-c2ccccc2)cc1=O)(C(=O)NO)S(C)(=O)=O` (stereo not shown) [Example 294] the EC-1 (MIC) [1] was over 64 µg/mL and the PA-7 (MIC) [2] was over 64 µg/mL.
Work on `C[C@@](CCn1ccc(-c2ccc(OCCC3CCN(C(=O)CO)CC3)cc2)cc1=O)(C(=O)NO)S(C)(=O)=O` [Example 312, (2R)-4-[4-{4-[2-(1-glycoloylpiperidin-4-yl)ethoxy]phenyl}-2-oxopyridin-1(2H)-yl]-N-hydroxy-2-methyl-2-(methylsulfonyl)butanamide] yielded an EC-1 (MIC) [1] of 0.5 µg/mL and a PA-7 (MIC) [2] of 4 µg/mL.
With `CC(CCn1ccc(-c2ccc(-c3ccc(F)cc3)nc2)cc1=O)(C(=O)NO)S(C)(=O)=O` (stereo not shown) [Example 281, 4-[6-(4-fluorophenyl)-2′-oxo-3,4′-bipyridin-1′(2′H)-yl]-N-hydroxy-2-methyl-2-(methylsulfonyl)butanamide] the EC-1 (MIC) [1] was 0.5 µg/mL and the PA-7 (MIC) [2] was 8 µg/mL.
`COc1ccc(-c2ccn(CCC(C)(C(=O)NO)S(C)(=O)=O)c(=O)c2)c(OC)c1` (stereo not shown) [Example 161, 4-[4-(2,4-dimethoxyphenyl)-2-oxopyridin-1(2H)-yl]-N-hydroxy-2-methyl-2-(methylsulfonyl)butanamide] was tested, and the EC-1 (MIC) [1, 3] was 8 µg/mL and the PA-7 (MIC) [2, 3] was 8 µg/mL.
`C[C@@](CCn1ccc(-c2ccc(-c3ccncn3)cc2)cc1=O)(C(=O)NO)S(C)(=O)=O` [Example 400, (2R)-N-hydroxy-2-methyl-2-(methylsulfonyl)-4-[2-oxo-4-(4-pyrimidin-4-ylphenyl)pyridin-1(2H)-yl]butanamide] gave an EC-1 (MIC) [1] of 1 µg/mL and a PA-7 (MIC) [2] of 2 µg/mL.
In the case of `C[C@@](CCn1ccc(-c2ccc(CCCO)c(F)c2)cc1=O)(C(=O)NO)S(C)(=O)=O` [Example 344, (2R)-4-{4-[3-fluoro-4-(3-hydroxypropyl)phenyl]-2-oxopyridin-1(2H)-yl}-N-hydroxy-2-methyl-2-(methylsulfonyl)butanamide], the EC-1 (MIC) [1] was 4 µg/mL and the PA-7 (MIC) [2] was 2 µg/mL.
`C[C@@](CCn1ccc(-c2ccc3[nH]c(=O)ccc3c2)cc1=O)(C(=O)NO)S(C)(=O)=O` [Example 327, (2R)-N-hydroxy-2-methyl-2-(methylsulfonyl)-4-[2-oxo-4-(2-oxo-1,2-dihydroquinolin-6-yl)pyridin-1(2H)-yl]butanamide] was tested, and the EC-1 (MIC) [1] was 4 µg/mL and the PA-7 (MIC) [2] was over 64 µg/mL.
For `CC(CCn1ccc(-c2ccc3c(ccn3CCCO)c2)cc1=O)(C(=O)NO)S(C)(=O)=O` (stereo not shown) [Example 267, N-hydroxy-4-{4-[1-(3-hydroxypropyl)-1H-indol-5-yl]-2-oxopyridin-1(2H)-yl}-2-methyl-2-(methylsulfonyl)butanamide], the EC-1 (MIC) [1] was 2 µg/mL and the PA-7 (MIC) [2] was 8 µg/mL.
`CC(CCn1ccc(-c2ccc(OCCCN3CCOCC3)cc2F)cc1=O)(C(=O)NO)S(C)(=O)=O` (stereo not shown) [Example 226, 4-{4-[2-fluoro-4-(3-morpholin-4-ylpropoxy)phenyl]-2-oxopyridin-1(2H)-yl}-N-hydroxy-2-methyl-2-(methylsulfonyl)butanamide] gave an EC-1 (MIC) [1] of 2 µg/mL and a PA-7 (MIC) [2] of 8 µg/mL.
`CC(CCn1ccc(-c2ccc(CC#N)cc2)cc1=O)(C(=O)NO)S(C)(=O)=O` (stereo not shown) [Example 129, 4-{4-[4-(cyanomethyl)phenyl]-2-oxopyridin-1(2H)-yl}-N-hydroxy-2-methyl-2-(methylsulfonyl)butanamide] gave an EC-1 (MIC) [1, 3] of 2 µg/mL and a PA-7 (MIC) [2, 3] of 32 µg/mL.
In the case of `CC(CCn1ccc(-c2ccc3cc(OCCO)ccc3c2)cc1=O)(C(=O)NO)S(C)(=O)=O` (stereo not shown) [Example 273, N-hydroxy-4-{4-[6-(2-hydroxyethoxy)-2-naphthyl]-2-oxopyridin-1(2H)-yl}-2-methyl-2-(methylsulfonyl)butanamide], the EC-1 (MIC) [1] was 0.5 µg/mL and the PA-7 (MIC) [2] was 4 µg/mL.
Work on `Cc1cnc(N2CC=C(c3ccn(CC[C@](C)(C(=O)NO)S(C)(=O)=O)c(=O)c3)CC2)nc1` [Example 420, (2R)-N-hydroxy-2-methyl-4-[1′-(5-methylpyrimidin-2-yl)-2-oxo-1′,2′,3′,6′-tetrahydro-4,4′-bipyridin-1(2H)-yl]-2-(methylsulfonyl)butanamide] yielded an EC-1 (MIC) [1] of 4 µg/mL and a PA-7 (MIC) [2] of 8 µg/mL.
In the case of `C[C@@](CCn1ccc(-c2ccc(-c3cncs3)cc2)cc1=O)(C(=O)NO)S(C)(=O)=O` [Example 406, (2R)-N-hydroxy-2-methyl-2-(methylsulfonyl)-4-{2-oxo-4-[4-(1,3-thiazol-5-yl)phenyl]pyridin-1(2H)-yl}butanamide], the EC-1 (MIC) [1] was 0.25 µg/mL and the PA-7 (MIC) [2] was 0.5 µg/mL.
